Test results published in patent US11634458B2, “Peptides and compositions for use in cosmetics and medicine” (LIPOTRUE, S.L., priority 2018, dated 2023).

Experiments:
[1] = system: human skeletal muscle myocytes; assay: Gene expression modulation in skeletal muscle human myocytes (RTqPCR contractility gene panel); assay type: cell-based; conditions: vs basal control
Method: Said peptides were tested to evaluate their capacity to modulate the expression of several genes related with muscle contraction and relaxation in human skeletal muscle myocytes (Lodish H, Berk A, Zipursky S L, et al. (2000), Molecular Cell Biology, 4th edition; Section 18.3 Myosin: The Actin Motor Protein, Nueva York, W. H. Freeman; Kuo, I Y, & Ehrlich, B E (2015), Signaling in Muscle Contraction, Cold Spring Harbor Perspectives in Biology, 7(2); RAPSN receptor associated protein of the synapse [Homo sapiens (human)], Gene ID in NCBI 5913; Blake D J, Tinsley J M, Davies K E (1996), Utrophin: a structural and functional comparison to dystrophin, Brain Pathol., 6(1):37-47; Barik A, Lu Y, Sathyamurthy A, et.al. (2014), LRP4Is Critical for Neuromuscular Junction Maintenance, The Journal of Neuroscience, 34(42), 13892-13905; Kim N, Stiegler A L, Cameron T O, Hallock P T, et.al. (2008), Lrp4 is a Receptor for Agrin and Forms a Complex with MuSK, Cell, 135(2), 334-342; Mahavadi S, Nalli A, Kumar D, et.al. (2014), Increased expression of caveolin-1 is associated with upregulation of the RhoA/Rho kinase pathway and smooth muscle contraction in diabetes (1110.11), The FASEB Journal, 28:1_supplement)). To that end, a contractility smart data gene panel was designed. Said contractility smart data gene panel analyses the expression of the genes related with muscular contraction and relaxation included in table 5.
Briefly, human skeletal muscle myoblasts were seeded in duplicate in 12-well culture plates at a density of 1×10^5 cells/well and maintained at standard culture conditions (37° C., 95% humidity, 5% CO2) for 48-72h. Myoblast differentiation to myocyte was then induced with specific differentiation media (SKM-D medium+1% Antibiotic-Antimycotic) and monitored for 7 more days. Differentiated cells were treated with 0.05 mg/mL of peptide Ac-SEQ ID NO: 5-NH2; or with 0.1 mg/mL of peptide Ac-SEQ ID NO: 10-NH2 for 24 hours; or with 0.05 and 0.5 mg/mL of peptide Ac-SEQ ID NO: 8-NH2 for 6h; or with 0.5 mg/mL of peptide Ac-SEQ ID NO: 8-NH2 for 24 h. Untreated cells were used as basal control. Cells were then lysed for RNA extraction with a RNA purification commercial kit following manufacturer instructions (RNeasy mini kit, Qiagen, Netherlands). RNA was then quantified by nanodrop, adjusted in concentration and processed for retrotranscription to cDNA using a commercially available kit (High-Capacity cDNA Reverse Transcription kit, Thermofisher Scientific, USA). Resulting cDNA was used to perform a RTqPCR (Real Time Quantitative Polymerase Chain Reaction) using taqman technology and a panel of probes designed to target the specific genes related to muscle contractility mentioned in table 4.

[2] = system: human muscle cells and motor neurons derived from hiPSC co-cultures; assay: Contraction frequency in human muscle cell / hiPSC motor neuron co-cultures; assay type: cell-based
Method: The potential of said peptide Ac-SEQ ID NO: 8-NH2 to modulate the contraction frequency was evaluated in vitro using human muscle cells and motor neurons derived from hiPSC co-cultures, by means of live-imaging video of localized contractile muscle fibers recorded with an InCell 2200 automated microscope during 60 seconds, before and after treatment (after treatment, at each of the established timepoints).
Human muscle cells were cultivated at a density of 1×10^6 cells in T75 cm^2 flasks and then transferred to 96 well plates for differentiation. Motor neurons derived from hiPSC were transferred onto the 96 well plates containing the muscle cells in a differentiation medium. Co-cultures were maintained for 10 days in order to generate neurons junctions with muscle fibers. Spontaneous contractions were observed within 5 days.
Co-cultures were then treated with control medium (basal), 1 μM α-bungarotoxin, 0.5 mg/mL of acetyl hexapeptide-8 as a benchmark reference and 0.05 or 0.1 mg/mL of peptide Ac-SEQ ID NO: 8-NH2. Movies of co-cultures were recorded during 60 seconds before treatment and, after 30 minutes of incubation, movies were recorded again during 60 seconds. The culture plate was incubated again for 1 h 30 min with compounds (2 h of total incubation), and movies of co-cultures were recorded again during 60 seconds. The culture plate was incubated again for a total of 24 h with compounds and at the end of the incubation movies were recorded again during 60 seconds. Finally, compounds were washed out and a last recording after 24 h from said washed out of the compounds was done to assess an eventual recovery of muscle contractions (recovery).
Frequencies of contraction were calculated before and after each incubation. For each culture condition, 6 wells were analyzed.

In the case of “Ac-His-Ala-Leu-Arg-Phe-Trp-NH2 [Ac-SEQ ID NO: 8-NH2]”, the CACNB1 gene expression ([1]; 0.05 mg/mL, 6 hours) is reported as “downregulation”, the LRP4 gene expression ([1]; 0.05 mg/mL, 6 hours) is reported as “downregulation” and the MYH1 gene expression ([1]; 0.05 mg/mL, 6 hours) is reported as “downregulation”. The UTRN gene expression ([1]; 0.05 mg/mL, 6 hours) was “downregulation”, the ACTA1 gene expression ([1]; 0.5 mg/mL, 6 hours) was “downregulation” and the CALM3 gene expression ([1]; 0.5 mg/mL, 6 hours) was “downregulation”. The CAV1 gene expression ([1]; 0.5 mg/mL, 6 hours) was “downregulation”, the SCN3A gene expression ([1]; 0.5 mg/mL, 6 hours) was “downregulation” and the TNNC1 gene expression ([1]; 0.5 mg/mL, 6 hours) was “downregulation”. For the same substance, the ATP2A gene expression ([1]; 0.5 mg/mL, 24 hours) was “upregulation”, the RAPSN gene expression ([1]; 0.5 mg/mL, 24 hours) was “downregulation” and the “muscle contraction frequency with regard to the basal non-treated cells” value ([2]; 0.05 mg/mL, 24 h incubation) was 23%. The “muscle contraction frequency with regard to the basal non-treated cells” value ([2]; 0.05 mg/mL, after 30 min) was 25%, the “muscle contraction frequency with regard to the basal non-treated cells” value ([2]; 0.05 mg/mL, recovery 24 h after washout) was 65% and the “muscle contraction frequency with regard to the basal non-treated cells” value ([2]; 0.1 mg/mL, 24 h incubation) was 10%. For the same substance, the “muscle contraction frequency with regard to the basal non-treated cells” value ([2]; 0.1 mg/mL, after 30 min) was 18% and the “muscle contraction frequency with regard to the basal non-treated cells” value ([2]; 0.1 mg/mL, recovery 24 h after washout) was 35%.
